From patent publication US11072634B2, “Inhibitors of transglutaminases” (Zedira GmbH, priority 2016, dated 2021)
*1 amine or outer side, *2 acyl side, *3 side chain or, on linkers, in order; H or OH if unused. Where a SMILES comes first, the peptide text is derived from it. [ ]: non-standard residue; d: D form. The star is where a group is joined. Nle(5,6-dioxo,6-NHMe) = CNC(=O)C(=O)CC[C@H](N)C(=O)O; X7 = O=C(CC[C@H](N[*:1])C(=O)[*:2])C(=O)NCc1ccccc1; X2 = CC(C)(C)NC(=O)C(=O)CC[C@H](N[*:1])C(=O)[*:2]; X4 = O=C(CC[C@H](N[*:1])C(=O)[*:2])C(=O)NC1CC1; Isonicotinoyl(3-COOH) = O=C(O)c1cnccc1C(=O)*; X5 = NC(=O)C(=O)CC[C@H](N[*:1])C(=O)[*:2]; d(aIle) = CC[C@H](C)[C@@H](N)C(=O)O; Pro(4-oxo) = O=C1CN[C@H](C(=O)O)C1; Chg = N[C@H](C(=O)O)C1CCCCC1; Tle = CC(C)(C)[C@H](N)C(=O)O; Nle = CCCC[C@H](N)C(=O)O; X3 = Cc1nc(C(=O)*)cs1

How the values were obtained:
[1] = target: T1, recombinant human factor XIII A-subunit (rhFXIII-A, plasma transglutaminase) (Homo sapiens, UniProt P00488); assay: Inhibition of rec. human coagulation factor XIII (fluorescence, Abz-NE(CAD-DNP)EQVSPLILLK-OH); format: biochemical; conditions: Table 3, FXIII inhibitors; read-out: IC50 FXIII
T1 construct: His6; purchased Zedira 1027 (so in the source); T027)
T1 sequence (P00488 39-732 limits assumed): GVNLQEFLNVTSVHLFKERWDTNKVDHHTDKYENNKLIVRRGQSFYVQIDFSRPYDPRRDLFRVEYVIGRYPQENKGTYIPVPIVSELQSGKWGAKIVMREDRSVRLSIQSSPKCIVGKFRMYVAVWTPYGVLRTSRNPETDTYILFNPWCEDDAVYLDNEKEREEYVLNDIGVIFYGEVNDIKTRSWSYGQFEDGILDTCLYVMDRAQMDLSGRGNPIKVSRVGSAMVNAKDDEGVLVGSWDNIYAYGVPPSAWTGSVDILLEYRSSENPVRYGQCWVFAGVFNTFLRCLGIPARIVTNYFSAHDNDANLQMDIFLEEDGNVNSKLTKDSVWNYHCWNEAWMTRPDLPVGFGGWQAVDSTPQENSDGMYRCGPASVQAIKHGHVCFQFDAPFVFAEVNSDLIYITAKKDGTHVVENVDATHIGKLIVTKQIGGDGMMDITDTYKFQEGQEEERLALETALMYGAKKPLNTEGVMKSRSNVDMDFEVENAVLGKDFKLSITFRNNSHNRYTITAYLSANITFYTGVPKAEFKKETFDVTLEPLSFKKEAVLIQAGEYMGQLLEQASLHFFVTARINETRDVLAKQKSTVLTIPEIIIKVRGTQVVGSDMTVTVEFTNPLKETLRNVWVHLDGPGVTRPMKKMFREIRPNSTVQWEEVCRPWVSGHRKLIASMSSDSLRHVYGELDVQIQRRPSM
Protocol: Method for Inhibition Studies of Rec. Human Coagulation Factor XIII (Plasma Transglutaminase, rhFXIII-A)
(§1) 50 μg lyophilized His-tagged recombinant human factor XIII A-subunit (His6-rhFXIII, Zedira product 1027) is reconstituted in H2O (volume depends on original volume before lyophilization) resulting in a buffer containing 20 mM Tris-HCl, 150 mM NaCl, 1 mM EDTA, 1 mM DTT, 189 mg/ml maltodextrin, pH=7.5. The rhFXIII stock solution is diluted in buffer (50 mM Tris-HCl, 7.5 mM CaCl2, 150 mM NaCl, pH=7.4) to give a working solution of 59 U/ml (based on the amine-incorporation activity measured using transglutaminase activity assay #1036 (Zedira GmbH), described below).
(§2) A 10 mM inhibitor stock solution is prepared in DMSO, and from this a serial 1:2-fold dilution series is prepared also in DMSO. Each of the initial dilutions is subsequently diluted 1:50-fold with buffer (50 mM Tris-HCl, 7.5 mM CaCl2, 150 mM NaCl, pH=7.4) to yield the final working dilutions containing 2% (v/v) DMSO.
(§3) 15 μl of inhibitor working dilution are added per well of a 96 well microtiter plate. As control, 15 μl of a 2% (v/v) DMSO solution prepared using the buffer mentioned above are added per well.
(§4) 480 μl of His6-rhFXIII working solution and 120 μl human alpha thrombin (0.5 NIH units/μl) are added to 10.8 ml assay buffer (50 mM Tris-HCl, 7.5 mM CaCl2, 150 mM NaCl, 5 mM DTT, 13.4 mM glycine methylester, 50 μM Abz-NE(CAD-DNP)EQVSPLILLK-OH, (Zedira product A101; patent No.: EP 1781807B1), pH=7.4). From this master-mix solution, 285 μl are added per well containing the inhibitor. Increase in fluorescence is measured using […] and λem=418 nm at 37° C. for 35 min. A slope of the increase in fluorescence between 20 and 30 min is calculated for determination of the IC50 value (inhibitor concentration at which 50% of the initial FXIII activity is blocked).
(§5) Analysis of enzymatic activity is performed by calculation of the slope of an increase in fluorescence intensity. IC50 values are calculated by plotting the enzymatic activity (as percentage from control containing 2% DMSO instead of inhibitor) against the inhibitor concentration. IC50 is defined as the inhibitor concentration blocking 50%) of initial enzyme activity.

TG2 = target: T2, TG2 (Homo sapiens, UniProt P21980); assay: FXIII assay format using TG2 instead of FXIII (selectivity of FXIIIa blockers); format: biochemical; conditions: Table 3, selectivity with respect to TG2; read-out: IC50 TG2
T2 sequence (P21980 1-687): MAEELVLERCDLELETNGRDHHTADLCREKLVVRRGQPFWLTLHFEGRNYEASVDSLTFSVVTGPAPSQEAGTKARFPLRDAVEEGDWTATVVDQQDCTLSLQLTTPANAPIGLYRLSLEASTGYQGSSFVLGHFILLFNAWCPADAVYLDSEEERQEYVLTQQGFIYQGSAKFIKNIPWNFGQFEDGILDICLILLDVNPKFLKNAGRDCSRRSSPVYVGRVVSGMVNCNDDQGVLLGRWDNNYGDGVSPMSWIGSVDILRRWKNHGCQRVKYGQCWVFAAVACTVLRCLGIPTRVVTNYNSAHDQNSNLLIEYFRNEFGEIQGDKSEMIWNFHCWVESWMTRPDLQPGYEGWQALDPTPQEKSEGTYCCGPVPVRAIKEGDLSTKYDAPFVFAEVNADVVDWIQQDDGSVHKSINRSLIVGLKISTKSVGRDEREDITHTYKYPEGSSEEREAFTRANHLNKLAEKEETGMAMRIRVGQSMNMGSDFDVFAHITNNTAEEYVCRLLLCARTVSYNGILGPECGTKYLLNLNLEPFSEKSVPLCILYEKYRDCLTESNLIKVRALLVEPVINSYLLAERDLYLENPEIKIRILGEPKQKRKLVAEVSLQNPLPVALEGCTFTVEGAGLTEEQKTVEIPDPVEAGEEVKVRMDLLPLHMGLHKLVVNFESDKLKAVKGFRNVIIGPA
Protocol: as §1, §2, §3, §4
This assay was also used to determine selectivity of inhibitors preferentially blocking FXIIIa by using TG2 instead of FXIII.
as §5

IC50 [1] [nM] | IC50 (TG2) [nM] | SMILES
16000 | 11500 | CC[C@H](C)[C@@H](NC(=O)[C@H](CC(C)C)NC(=O)[C@H](CCC(=O)C(=O)NC1CC1)NC(=O)c1csc(C)n1)C(=O)N[C@@H](CC(C)C)C(=O)N1CCC[C@H]1C(=O)N[C@@H](Cc1c[nH]c2ccccc12)C(=O)N1CCC[C@H]1C(N)=O [Compound E33, (S)—N1-((S)-1-((2R,3S)-1-((S)-1-((S)-2-((S)-1-((S)-2-carbamoylpyrrolidin-1-yl)-3-(1H-indol-3-yl)-1-oxopropan-2-ylcarbamoyl)pyrrolidin-1-yl)-4-methyl-1-oxopentan-2-ylamino)-3-methyl-1-oxopentan-2-ylamino)-4-methyl-1-oxopentan-2-yl)-N6-cyclopropyl-2-(2-methylthiazole-4-carboxamido)-5-oxohexanediamide] (X3-[X4]L[d(aIle)]LPWP-NH2)
2450 | 200 | CCCC[C@H](NC(=O)[C@H](CCC(=O)C(=O)NC)NC(=O)CNC(C)=O)C(=O)N[C@H](C(=O)N[C@@H](CC(C)C)C(=O)N1CCC[C@H]1C(=O)N[C@@H](Cc1c[nH]c2ccccc12)C(N)=O)[C@@H](C)CC [Compound E34, (S)-2-(2-acetamidoacetamido)-N1-((S)-1-((2S,3S)-1-((S)-1-((S)-2-((S)-1-amino-3-(1H-indol-3-yl)-1-oxopropan-2-ylcarbamoyl)pyrrolidin-1-yl)-4-methyl-1-oxopentan-2-ylamino)-3-methyl-1-oxopentan-2-ylamino)-1-oxohexan-2-yl)-N6-methyl-5-oxohexanediamide] (Ac-G[Nle(5,6-dioxo,6-NHMe)][Nle]ILPW-NH2)
1950 | 525 | CCCC[C@H](NC(=O)[C@H](CCC(=O)C(=O)NC)NC(=O)CNC(=O)[C@@H]1CCCN1C(C)=O)C(=O)N[C@H](C(=O)N[C@@H](CC(C)C)C(=O)N1CCC[C@H]1C(=O)N[C@@H](Cc1c[nH]c2ccccc12)C(N)=O)[C@@H](C)CC [Compound E35, (S)-2-(2-((S)-1-acetylpyrrolidine-2-carboxamido)acetamido)-N1-((S)-1-((2S,3S)-1-((S)-1-((S)-2-((S)-1-amino-3-(1H-indol-3-yl)-1-oxopropan-2-ylcarbamoyl)pyrrolidin-1-yl)-4-methyl-1-oxopentan-2-ylamino)-3-methyl-1-oxopentan-2-ylamino)-1-oxohexan-2-yl)-N6-methyl-5-oxohexanediamide] (Ac-PG[Nle(5,6-dioxo,6-NHMe)][Nle]ILPW-NH2)
3100 | 800 | CCCC[C@H](NC(=O)[C@H](CCC(=O)C(=O)NC)NC(=O)CNC(=O)[C@@H]1CCCN1C(=O)CNC(C)=O)C(=O)N[C@H](C(=O)N[C@@H](CC(C)C)C(=O)N1CCC[C@H]1C(=O)N[C@@H](Cc1c[nH]c2ccccc12)C(N)=O)[C@@H](C)CC [Compound E36, (S)-2-(2-((S)-1-(2-acetamidoacetyl)pyrrolidine-2-carboxamido)acetamido)-N1-((S)-1-((2S,3S)-1-((S)-1-((S)-2-((S)-1-amino-3-(1H-indol-3-yl)-1-oxopropan-2-ylcarbamoyl)pyrrolidin-1-yl)-4-methyl-1-oxopentan-2-ylamino)-3-methyl-1-oxopentan-2-ylamino)-1-oxohexan-2-yl)-N6-methyl-5-oxohexanediamide] (Ac-GPG[Nle(5,6-dioxo,6-NHMe)][Nle]ILPW-NH2)

Continued, molecule first:

SMILES | IC50 [1] [nM] | IC50 (TG2) [nM]
CC(C)(C)[C@H](NC(=O)[C@H](CCC(=O)C(=O)NCc1ccccc1)NC(=O)c1ccncc1C(=O)O)C(=O)N1CC(=O)C[C@H]1C(=O)N[C@H](C(=O)N[C@H](C(N)=O)C1CCCCC1)C1CCCCC1 [Compound E29, 4-((S)-1-((S)-1-((S)-2-((S)-2-((S)-2-amino-1-cyclohexyl-2-oxoethylamino)-1-cyclohexyl-2-oxoethylcarbamoyl)-4-oxopyrrolidin-1-yl)-3,3-dimethyl-1-oxobutan-2-ylamino)-6-(benzylamino)-1,5,6-trioxohexan-2-ylcarbamoyl)nicotinic acid] ({Isonicotinoyl(3-COOH)}-[X7][Tle][Pro(4-oxo)][Chg][Chg]-NH2) | 850 | > 20000
CC(C)(C)NC(=O)C(=O)CC[C@H](NC(=O)c1ccncc1C(=O)O)C(=O)N[C@H](C(=O)N1CC(=O)C[C@H]1C(=O)N[C@H](C(=O)N[C@H](C(N)=O)C1CCCCC1)C1CCCCC1)C(C)(C)C [Compound E30, 4-((S)-1-((S)-1-((S)-2-((S)-2-((S)-2-amino-1-cyclohexyl-2-oxoethylamino)-1-cyclohexyl-2-oxoethylcarbamoyl)-4-oxopyrrolidin-1-yl)-3,3-dimethyl-1-oxobutan-2-ylamino)-6-(tert-butylamino)-1,5,6-trioxohexan-2-ylcarbamoyl)nicotinic acid] ({Isonicotinoyl(3-COOH)}-[X2][Tle][Pro(4-oxo)][Chg][Chg]-NH2) | 2900 | > 20000
CC(C)(C)[C@H](NC(=O)[C@H](CCC(=O)C(N)=O)NC(=O)c1ccncc1C(=O)O)C(=O)N1CC(=O)C[C@H]1C(=O)N[C@H](C(=O)N[C@H](C(N)=O)C1CCCCC1)C1CCCCC1 [Compound E31, 4-((S)-6-amino-1-((S)-1-((S)-2-((S)-2-((S)-2-amino-1-cyclohexyl-2-oxoethylamino)-1-cyclohexyl-2-oxoethylcarbamoyl)-4-oxopyrrolidin-1-yl)-3,3-dimethyl-1-oxobutan-2-ylamino)-1,5,6-trioxohexan-2-ylcarbamoyl)nicotinic acid] ({Isonicotinoyl(3-COOH)}-[X5][Tle][Pro(4-oxo)][Chg][Chg]-NH2) | 5000 | > 20000
Cc1nc(C(=O)N[C@@H](CCC(=O)C(=O)NC2CC2)C(=O)N[C@H](C(=O)N2CC(=O)C[C@H]2C(=O)N[C@H](C(=O)N[C@H](C(N)=O)C2CCCCC2)C2CCCCC2)C(C)(C)C)cs1 [Compound E32, (S)—N1-((S)-1-((S)-2-((S)-2-((S)-2-amino-1-cyclohexyl-2-oxoethylamino)-1-cyclohexyl-2-oxoethylcarbamoyl)-4-oxopyrrolidin-1-yl)-3,3-dimethyl-1-oxobutan-2-yl)-N6-cyclopropyl-2-(2-methylthiazole-4-carboxamido)-5-oxohexanediamide] (X3-[X4][Tle][Pro(4-oxo)][Chg][Chg]-NH2) | 2650 | 1000
